Data reported in ChEMBL document CHEMBL3988442, “University of Dundee, Small-Polar-MMV Screening Library” (2021).
“And” between values parts separate entries of the source, which are not always exact repeats. Equal entries are not always repeated.

What was measured:
[1] = microbe, parasite or virus in culture; settings: Mycobacterium tuberculosis, 96 h, read-out: pIC50 (converted)
[2] = molecular target: T1, Histidine--tRNA ligase (Leishmania infantum, UniProt A4I591); test: Leishmania infantum Histidine tRNA synthetase (LdHisRS); type: functional
T1 sequence (A4I591 whole entry): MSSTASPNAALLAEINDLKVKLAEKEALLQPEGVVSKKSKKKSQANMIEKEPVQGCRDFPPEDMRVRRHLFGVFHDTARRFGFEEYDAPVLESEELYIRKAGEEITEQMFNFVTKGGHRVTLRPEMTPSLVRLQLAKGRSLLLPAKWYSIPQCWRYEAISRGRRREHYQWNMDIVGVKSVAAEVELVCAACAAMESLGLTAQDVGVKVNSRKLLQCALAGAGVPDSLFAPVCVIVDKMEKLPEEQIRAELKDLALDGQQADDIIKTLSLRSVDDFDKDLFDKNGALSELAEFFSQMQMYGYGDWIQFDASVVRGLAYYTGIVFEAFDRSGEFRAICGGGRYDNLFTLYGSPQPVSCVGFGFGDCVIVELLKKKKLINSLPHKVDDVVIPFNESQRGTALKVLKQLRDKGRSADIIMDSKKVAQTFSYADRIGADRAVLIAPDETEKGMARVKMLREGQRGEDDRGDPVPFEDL

[3] = microbe, parasite or virus in culture; settings: Mycobacterium tuberculosis, 72 h, read-out: pIC50 (converted)
[4] = test system: Plasmodium falciparum; test: Calibr Malaria Delayed Death Assay SOP; type: functional, organism-based; settings: for IC50: Plasmodium falciparum
[5] = In vitro enzyme assay to detect hydrolysis of chlorophenol red-beta-D-[…] directly proportional to the number of Toxoplasma stably expressing beta-galactosidase; type: functional, organism-based, Toxoplasma gondii; settings: for IC50: Toxoplasma gondii
[6] = test system: Leishmania donovani; test: Leishmania intramacrophage assay; type: functional, organism-based; settings: for IC50: Leishmania donovani
[7] = test system: Schistosoma mansoni; test: High throughput screening of compounds against Schistosoma mansoni motility; type: functional; design: dose or concentration left out as unconfirmed
[8] = molecular target: Tryptophan--tRNA ligase (Mycobacterium tuberculosis (strain ATCC 25618 / H37Rv), UniProt P9WFT3); test: Biochemical assay for Mt-TrpRS; type: functional
[9] = molecular target: ClpP1P2 (Mycobacterium tuberculosis (strain ATCC 25618 / H37Rv), UniProt P9WPC3+P9WPC5); test: in vitro assay to detect presence of AMC directly proportional to the activity of ClpP1P2. GHDDI collaboration.; type: functional
ClpP1P2, sequence (P9WPC5 whole entry): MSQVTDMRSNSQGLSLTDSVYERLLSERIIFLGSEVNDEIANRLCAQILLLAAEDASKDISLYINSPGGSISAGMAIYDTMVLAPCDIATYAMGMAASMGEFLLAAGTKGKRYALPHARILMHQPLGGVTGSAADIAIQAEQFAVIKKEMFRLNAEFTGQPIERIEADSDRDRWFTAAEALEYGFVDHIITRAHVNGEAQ
ClpP1P2, sequence (P9WPC3 whole entry): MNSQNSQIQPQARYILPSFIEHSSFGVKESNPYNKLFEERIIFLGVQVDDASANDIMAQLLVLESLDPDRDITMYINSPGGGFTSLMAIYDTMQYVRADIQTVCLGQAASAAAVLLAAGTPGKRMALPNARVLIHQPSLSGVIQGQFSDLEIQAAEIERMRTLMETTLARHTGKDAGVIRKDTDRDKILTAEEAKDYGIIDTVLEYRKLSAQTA

Tryptophan--tRNA ligase, sequence (P9WFT3 whole entry): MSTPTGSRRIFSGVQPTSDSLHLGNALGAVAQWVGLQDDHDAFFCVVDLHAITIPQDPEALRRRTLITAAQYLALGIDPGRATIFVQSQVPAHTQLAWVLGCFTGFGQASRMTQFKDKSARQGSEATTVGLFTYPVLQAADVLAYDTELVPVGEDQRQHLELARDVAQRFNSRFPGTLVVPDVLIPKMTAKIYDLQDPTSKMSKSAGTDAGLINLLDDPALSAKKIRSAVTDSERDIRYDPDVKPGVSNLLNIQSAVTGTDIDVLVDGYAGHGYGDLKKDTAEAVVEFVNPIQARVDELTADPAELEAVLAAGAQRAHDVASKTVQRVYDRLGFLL

In the case of `CCC1CN(CC(=O)NCCN2CCCCCC2)c2ccccc2S1` (configuration not stated), the IC50 [1] is reported as > 50.1 µM, the IC50 [2] is reported as 39.1 µM and 39.7 µM and the IC50 [3] is reported as 44.8 µM. For the same compound, the pIC50 [4] was 5.947 and the IC50 [4] was 1.33 µM.
In the case of `O=C(Nc1nccs1)c1csc(NC2CCCC2)n1`, the IC50 [5] is reported as 4.36 µM, the IC50 [1] is reported as 34.5 µM and the IC50 [2] is reported as 30.3 µM and 43.9 µM. The IC50 [3] was 28.4 µM.
With `CC(=O)c1c(C)nn(CC(=O)Nc2ccc(Br)cc2)c1C` the IC50 [5] was 7.32 µM, the IC50 [2] was 6.08 µM and 7.13 µM and the IC50 [3] was 8.6 µM.
For `COc1ccc(NC(=O)Cn2nc(C)c(C(C)=O)c2C)cc1`, the IC50 [5] was 3.61 µM, the IC50 [1] was 19 µM and the IC50 [2] was 17.2 µM and 14 µM. For the same compound, the IC50 [3] was 22.1 µM, the pIC50 [4] was 6.455 and the IC50 [4] was 0.421 µM.
For `CC(C)Nc1nc2c(c(NC3CC3)n1)CCN(C1CCOCC1)CC2`, the pIC50 [6] was 4.789 and the IC50 [6] was 13 µM.
For `Cc1nc(CN2CCc3nc(N4CCCC4)nc(NC(C)C)c3C2)cs1`, the IC50 [1] was 25.4 µM, the IC50 [2] was 14.7 µM and 12.1 µM and the IC50 [3] was 41.6 µM.
In the case of `Cc1nc(CN2CCc3nc(NC(C)C)nc(C)c3C2)cs1`, the IC50 [1] is reported as > 50.1 µM, the IC50 [2] is reported as 64.5 µM and 57.7 µM and the IC50 [3] is reported as > 50.1 µM.
With `Cc1ccc(CN2Cc3c(cnn3C)C(COCC3CC3)C2)s1` (configuration not stated) the pIC50 [6] was 5.151 and 4.71.
In the case of `Cc1[nH]/c(=N\C(=O)c2csc(NC3CCCC3)n2)sc1C`, the pIC50 [5] is reported as 5.387, the IC50 [5] is reported as 3.16 µM and the IC50 [1] is reported as > 50.1 µM. For the same compound, the IC50 [2] was 18 µM and 18.2 µM and the IC50 [3] was 19.8 µM.
With `Cc1cnc2n(c1=O)CC(C(=O)Nc1cccc3cccnc13)CS2` (configuration not stated) the “Percent Effect” value [7] was -85.49% and the IC50 [2] was 78.6 µM and 68.6 µM.
`CCOc1ccc(CNCCCn2ccnc2)cc1Br` gave a pIC50 [6] of 4.774 and an IC50 [6] of 14.4 µM.
In the case of `O=C(c1cc(-c2ccco2)cs1)N1CCCC1`, the IC50 [1] is reported as 33 µM, the IC50 [2] is reported as > 100 µM and 53 µM and the IC50 [3] is reported as 8 µM.
For `CC(C)C[C@H](N)COc1cccc(F)c1Oc1ccccc1`, the pIC50 [6] was 4.696 and the IC50 [6] was 12.5 µM.
For `COc1ccccc1C(=O)NC(c1ccccn1)[C@H]1CC[C@H](CN)CC1` (some centres not stated), the IC50 [8] was > 195 µM and the IC50 [2] was 9.74 µM and 9.59 µM.
For `COCC(O)CNc1cncc(Br)c1` (configuration not stated), the IC50 [8] was > 195 µM and the IC50 [2] was > 100 µM.
In the case of `CCCC(O)CNc1cncc(Br)c1` (configuration not stated), the IC50 [8] is reported as > 195 µM, the IC50 [1] is reported as 21.7 µM and the IC50 [2] is reported as > 100 µM. For the same compound, the IC50 [3] was > 50.1 µM.
In the case of `CN1CCC(N(Cc2ccco2)S(=O)(=O)c2cc(Br)ccc2Br)CC1`, the pIC50 [6] is reported as 4.867 and the IC50 [6] is reported as 17.8 µM.
With `Clc1cc(CN2CCCN3CCCC3C2)c2ncccc2c1` (configuration not stated) the IC50 [1] was 12.2 µM, the IC50 [2] was 26.6 µM and 21.9 µM and the IC50 [3] was 8.48 µM. The pIC50 [4] was 5.897 and the IC50 [4] was 1.3 µM.
For `CCn1nc2c(cc1=O)CN(c1ncnc3sccc13)CC2`, the IC50 [5] was 15 µM and the IC50 [2] was 15.5 µM and 11.5 µM.
In the case of `COc1ccccc1CN(C)C(=O)CN1CC(n2nc(C)cc2C)C1`, the pIC50 [6] is reported as 4.762 and the IC50 [6] is reported as 19.1 µM.
In the case of `CCn1nc2c(cc1=O)CN(c1ncnc3ccsc13)CC2`, the IC50 [5] is reported as 11.2 µM and the IC50 [2] is reported as 54.3 µM and 39.8 µM.
With `NC(=O)C1=NC2=NS(=O)(=O)c3ccccc3N2N1Cc1ccc(Cl)cc1` the IC50 [1] was 26.4 µM, the IC50 [2] was 62.9 µM and 43.4 µM and the IC50 [3] was 45.4 µM.
In the case of `COc1ccccc1C1(CNCc2cccc(O)c2)CCOCC1`, the IC50 [2] is reported as 1.13 µM and 1.34 µM (2×) and 1.43 µM, the pIC50 [4] is reported as 6.352 and the IC50 [4] is reported as 0.31 µM.
For `COc1ccccc1C1(CNCc2cccc(C#N)c2)CCOCC1`, the IC50 [2] was 70.8 µM and 65.6 µM, the pIC50 [4] was 5.883 and the IC50 [4] was 1.49 µM.
With `Brc1ccc(C2(CNCc3cc[nH]c3)CCOCC2)cc1` the IC50 [2] was 39.5 µM and 23.5 µM, the pIC50 [4] was 6.139 and the IC50 [4] was 0.542 µM.
For `Cc1cc(NC(=O)CN2CCc3nn(C)c(=O)cc3C2)on1`, the “Percent Effect” value [7] was -32.24% and the IC50 [2] was 71.2 µM and 54.8 µM.
In the case of `Cn1nc2c(cc1=O)CN(CCc1nc3ccccc3c(=O)[nH]1)CC2`, the “Percent Effect” value [7] is reported as -34.74% and the IC50 [2] is reported as 67.7 µM and 54.2 µM.
In the case of `CSc1ccc(C(CN)N2CCc3sccc3C2)cc1` (configuration not stated), the IC50 [1] is reported as 24.1 µM, the IC50 [2] is reported as 73.8 µM and 73.2 µM and the IC50 [3] is reported as 27.4 µM.
In the case of `Cn1ccc2c(-c3cc(N4CCCCC4)ncn3)ccnc21`, the IC50 [9] is reported as > 100 µM and the IC50 [2] is reported as 54.3 µM and 45.7 µM.
With `NC(=O)c1cnc2n1CCN(C(=O)c1ccc(Cn3cccc3)cc1)C2` the IC50 [9] was > 100 µM and the IC50 [2] was 22.7 µM and 17.3 µM.
In the case of `COc1cccn(CC(=O)N(C)CCC2CCOCC2)c1=O`, the IC50 [1] is reported as > 50.1 µM and the IC50 [2] is reported as > 100 µM.
With `c1ccc(Oc2ccc(OC34CCCN(CC3)C4)cc2)cc1` (configuration not stated) the IC50 [1] was 40.7 µM, the IC50 [2] was 39.4 µM and 40.6 µM and the IC50 [3] was 23.7 µM.
With `Cc1cccnc1[C@H](C)Nc1nc(-c2cccnc2)nc2c1CNC2` the IC50 [2] was 36.4 µM and 22.4 µM, the pIC50 [4] was 5.936 and the IC50 [4] was 0.951 µM.
In the case of `CN(C)c1nc2c(c(N3CCc4ccccc4C3)n1)CCNC2`, the IC50 [1] is reported as > 50.1 µM, the IC50 [2] is reported as 28.8 µM and 22.8 µM and the IC50 [3] is reported as 31.3 µM.
In the case of `CCCc1nc(N(C)CCN2CCCCCC2)c2cnn(C)c2n1`, the IC50 [1] is reported as > 50.1 µM, the IC50 [2] is reported as 41.4 µM and 39.5 µM and the IC50 [3] is reported as 28.3 µM.
With `Cc1ccccc1N1CCN(c2nc(N(C)C)nc3c2CCNC3)CC1` the IC50 [1] was 27 µM, the IC50 [2] was 55.3 µM and 91.3 µM and the IC50 [3] was 26 µM.
